Results on eleven molecules are retold here after patent US12594276B2, “Inhibitors of human immunodeficiency virus replication” (ViiV Healthcare UK (No.5) Limited, priority 2024, dated 2026).

Data set [1] deals with recombinant NL4-3 virus (nef section replaced with Renilla luciferase gene) in MT-2 cells. In words: HIV cell culture assay (antiviral activity, luciferase readout). Format: cell-based. To be noted: Renilla, NL43, MT-2 cells infected for 4-5 days with recombinant NL4-3 Renilla luciferase virus. An outline of the steps: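 The reporter virus was produced by transfecting 293T cells with the NL4-3 nef/Renilla luciferase proviral clone. MT-2 cells were infected for 4–5 days with serial compound dilutions present. Luciferase was read with a live-cell substrate, and EC50 came from the exponential median-effect equation.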

A short description of data set [2]: Compound cytotoxicity, XTT-based colorimetric assay. It is filed as cell-based. To be noted: human. An outline of the steps:
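CC50 derived from XTT colorimetric signal measured on day 4 in MT2 cells that were not infected. All other steps followed the antiviral assay protocol.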
(In general: Tetrazolium dyes change colour on reduction, which living cells bring about.)

Where [3] appears, read: uninfected MT2 cells, day 4, XTT, read-out: CC50.

Read-outs that look alike come from different tables or passages of the source.

Take `Cc1cc(C2(F)CCC(F)(F)CC2)nc2nc([C@H](Cc3cc(F)cc(F)c3)NC(=O)Cn3nc(C4CC4)c4c3C[C@@H]3C[C@H]43)n(-c3ccc(Cl)c4c(NS(C)(=O)=O)nn([C@@H](C)CN5C[C@@H](C)O[C@@H](C)C5)c34)c(=O)c12` (relative stereo) [Example 748, N-[(1S)-1-[(3P)-3-{4-chloro-1-[(2S)-1-[(2R,6S)-2,6-dimethylmorpholin-4-yl]propan-2-yl]-3-methanesulfonamido-1H-indazol-7-yl}-5-methyl-4-oxo-7-(1,4,4-trifluorocyclohexyl)-3H,4H-pyrido[2,3-d]pyrimidin-2-yl]-2-(3,5-difluorophenyl)ethyl]-2-[(2R*,4R*)-9-cyclopropyl-7,8-diazatricyclo[4.3.0.0^2,^4]nona-1(6),8-dien-7-yl]acetamide]: the EC50 in data set [1] is 0.024 nM. Besides, the 50% cytotoxic concentration (CC50) at 4 days in data set [2] (setting [3]) was > 20 nM.
As for `CC(=O)c1cc(C2CCC(F)(F)CC2)nc2nc([C@H](Cc3cc(F)cc(F)c3)NC(=O)Cn3nc(C(F)F)c4c3C(F)(F)[C@@H]3C[C@H]43)n(-c3ccc(Cl)c4c(NS(C)(=O)=O)nn(CCN5CCC(F)(F)CC5)c34)c(=O)c12` (atropisomer, axis not shown; (P)) [Example 746, N-[(1S)-1-[(3P)-5-acetyl-3-{4-chloro-1-[2-(4,4-difluoropiperidin-1-yl)ethyl]-3-methanesulfonamido-1H-indazol-7-yl}-7-(4,4-difluorocyclohexyl)-4-oxo-3H,4H-pyrido[2,3-d]pyrimidin-2-yl]-2-(3,5-difluorophenyl)ethyl]-2-[(2S,4R)-9-(difluoromethyl)-5,5-difluoro-7,8-diazatricyclo[4.3.0.0^2,4]nona-1(6),8-dien-7-yl]acetamide], the EC50 in data set [1] stood at 0.008 nM. Also, in data set [2] (setting [3]), the CC50 at 4 days was > 20 nM.
As to `CS(=O)(=O)Nc1nn(CCN2CCC(F)(F)C2)c2c(-n3c([C@H](Cc4cc(F)cc(F)c4)NC(=O)Cn4nc(C(F)F)c5c4C(F)(F)[C@@H]4C[C@H]54)nc4nc(C5CCC(F)(F)CC5)ccc4c3=O)ccc(Cl)c12` (atropisomer, axis not shown; (P)) [Example 158, N-[(1S)-1-[(3P)-3-{4-chloro-1-[2-(3,3-difluoropyrrolidin-1-yl)ethyl]-3-methanesulfonamido-1H-indazol-7-yl}-7-(4,4-difluorocyclohexyl)-4-oxo-3H,4H-pyrido[2,3-d]pyrimidin-2-yl]-2-(3,5-difluorophenyl)ethyl]-2-[(2S,4R)-9-(difluoromethyl)-5,5-difluoro-7,8-diazatricyclo[4.3.0.0^2,^4]nona-1(6),8-dien-7-yl]acetamide], the EC50 in data set [1] was 0.011 nM. Further, the cytotoxic concentration (CC50) at 4 days in data set [2] (setting [3]) is > 50 nM.
Consider `COCCNc1cc(C2CCC(F)(F)CC2)nc2nc([C@H](Cc3cc(F)cc(F)c3)NC(=O)Cn3nc(C(F)F)c4c3C(F)(F)[C@@H]3C[C@H]43)n(-c3ccc(Cl)c4c(NS(C)(=O)=O)nn(CCN5C[C@H](F)C[C@H](F)C5)c34)c(=O)c12` (atropisomer, axis not shown; (P)) [Example 414, N-[(1S)-1-[(3P)-3-(4-chloro-1-{2-[(3R,5S)-3,5-difluoropiperidin-1-yl]ethyl}-3-methanesulfonamido-1H-indazol-7-yl)-7-(4,4-difluorocyclohexyl)-5-[(2-methoxyethyl)amino]-4-oxo-3H,4H-pyrido[2,3-d]pyrimidin-2-yl]-2-(3,5-difluorophenyl)ethyl]-2-[(2S,4R)-9-(difluoromethyl)-5,5-difluoro-7,8-diazatricyclo[4.3.0.0^2,^4]nona-1(6),8-dien-7-yl]acetamide], for which the EC50 in data set [1] worked out at 0.01 nM. Also, the CC50 at 4 days in data set [2] (setting [3]) was > 20 nM.
For `COCCCn1nc(NS(C)(=O)=O)c2c(Cl)ccc(-n3c([C@H](Cc4cc(F)cc(F)c4)NC(=O)Cn4nc(C(F)F)c5c4C(F)(F)[C@@H]4C[C@H]54)nc4nc(C5CCC(F)(F)CC5)cc(NCCC5CCOCC5)c4c3=O)c21` (atropisomer, axis not shown; (P)) [Example 550, N-[(1S)-1-[(3P)-3-[4-chloro-3-methanesulfonamido-1-(3-methoxypropyl)-1H-indazol-7-yl]-7-(4,4-difluorocyclohexyl)-5-{[2-(oxan-4-yl)ethyl]amino}-4-oxo-3H,4H-pyrido[2,3-d]pyrimidin-2-yl]-2-(3,5-difluorophenyl)ethyl]-2-[(2S,4R)-9-(difluoromethyl)-5,5-difluoro-7,8-diazatricyclo[4.3.0.0^2,^4]nona-1(6),8-dien-7-yl]acetamide], in that order: 0.012 nM and > 20 nM.
Regarding `CS(=O)(=O)Nc1nn(CCN2[C@@H]3CC[C@H]2COC3)c2c(-n3c([C@H](Cc4cc(F)cc(F)c4)NC(=O)Cn4nc(C5CC5)c5c4C[C@@H]4C[C@H]54)nc4nc(C5CCC(F)(F)CC5)ccc4c3=O)ccc(Cl)c12` (atropisomer, axis not shown; (P)) [Example 381, N-[(1S)-1-[(3P)-3-(4-chloro-3-methanesulfonamido-1-{2-[(1R,5S)-3-oxa-8-azabicyclo[3.2.1]octan-8-yl]ethyl}-1H-indazol-7-yl)-7-(4,4-difluorocyclohexyl)-4-oxo-3H,4H-pyrido[2,3-d]pyrimidin-2-yl]-2-(3,5-difluorophenyl)ethyl]-2-[(2S,4S)-9-cyclopropyl-7,8-diazatricyclo[4.3.0.0^2,^4]nona-1(6),8-dien-7-yl]acetamide], the EC50 in data set [1] was 0.007 nM. Also, the CC50 at 4 days in data set [2] was > 20 nM.
Turning to `COCCCn1nc(NS(C)(=O)=O)c2c(Cl)ccc(-n3c([C@H](Cc4cc(F)cc(F)c4)NC(=O)Cn4nc(C(F)F)c5c4C(F)(F)[C@@H]4C[C@H]54)nc4nc(C5CCC(F)(F)CC5)cc(NCC(C)(C)N5CCOCC5)c4c3=O)c21` (atropisomer, axis not shown; (P)) [Example 546, N-[(1S)-1-[(3P)-3-[4-chloro-3-methanesulfonamido-1-(3-methoxypropyl)-1H-indazol-7-yl]-7-(4,4-difluorocyclohexyl)-5-{[2-methyl-2-(morpholin-4-yl)propyl]amino}-4-oxo-3H,4H-pyrido[2,3-d]pyrimidin-2-yl]-2-(3,5-difluorophenyl)ethyl]-2-[(2S,4R)-9-(difluoromethyl)-5,5-difluoro-7,8-diazatricyclo[4.3.0.0^2,^4]nona-1(6),8-dien-7-yl]acetamide], in data set [1], the concentration giving a half-maximal response (EC50) amounted to 0.017 nM. In addition, the CC50 at 4 days in data set [2] (setting [3]) is > 20 nM.
As for `Cc1cc(C2CCC(F)(F)CC2)nc2nc([C@H](Cc3cc(F)cc(F)c3)NC(=O)Cn3nc(C4CC4)c4c3C[C@@H]3C[C@H]43)n(-c3ccc(Cl)c4c(NS(C)(=O)=O)nn([C@@H](C)CN5CC(C)(C)OC(C)(C)C5)c34)c(=O)c12` (relative stereo) [Example 724, N-[(1S)-1-[(3P)-3-{4-chloro-3-methanesulfonamido-1-[(2S)-1-(2,2,6,6-tetramethylmorpholin-4-yl)propan-2-yl]-1H-indazol-7-yl}-7-(4,4-difluorocyclohexyl)-5-methyl-4-oxo-3H,4H-pyrido[2,3-d]pyrimidin-2-yl]-2-(3,5-difluorophenyl)ethyl]-2-[(2R*,4R*)-9-cyclopropyl-7,8-diazatricyclo[4.3.0.0^2,^4]nona-1(6),8-dien-7-yl]acetamide], in data set [1], the EC50 turned out to be 0.036 nM. In addition, in data set [2] (setting [3]), the CC50 at 4 days was > 20 nM.
As for `CS(=O)(=O)Nc1nn(CCN2CCC(F)(F)CC2)c2c(-n3c([C@H](Cc4cc(F)cc(F)c4)NC(=O)Cn4nc(C(F)F)c5c4C(F)(F)[C@@H]4C[C@H]54)nc4nc(C5CCC(F)(F)CC5)cc(CF)c4c3=O)ccc(Cl)c12` (atropisomer, axis not shown; (P)) [Example 514, N-[(1S)-1-[(3P)-3-{4-chloro-1-[2-(4,4-difluoropiperidin-1-yl)ethyl]-3-methanesulfonamido-1H-indazol-7-yl}-7-(4,4-difluorocyclohexyl)-5-(fluoromethyl)-4-oxo-3H,4H-pyrido[2,3-d]pyrimidin-2-yl]-2-(3,5-difluorophenyl)ethyl]-2-[(2S,4R)-9-(difluoromethyl)-5,5-difluoro-7,8-diazatricyclo[4.3.0.0^2,^4]nona-1(6),8-dien-7-yl]acetamide], the EC50 in data set [1] came out at 0.014 nM. For the same molecule, the CC50 at 4 days in data set [2] (setting [3]) was > 20 nM.
For `C[C@H](Cn1nc(NS(C)(=O)=O)c2c(Cl)ccc(-n3c([C@H](Cc4cc(F)cc(F)c4)NC(=O)Cn4nc(C(F)F)c5c4C(F)(F)[C@@H]4C[C@H]54)nc4nc(C5CCC(F)(F)CC5)cc(C5CC5)c4c3=O)c21)N1C[C@H](F)C[C@H](F)C1` (atropisomer, axis not shown; (P)) [Example 684, N-[(1S)-1-[(3P)-3-{4-chloro-1-[(2R)-2-[(3R,5S)-3,5-difluoropiperidin-1-yl]propyl]-3-methanesulfonamido-1H-indazol-7-yl}-5-cyclopropyl-7-(4,4-difluorocyclohexyl)-4-oxo-3H,4H-pyrido[2,3-d]pyrimidin-2-yl]-2-(3,5-difluorophenyl)ethyl]-2-[(2S,4R)-9-(difluoromethyl)-5,5-difluoro-7,8-diazatricyclo[4.3.0.0^2,^4]nona-1(6),8-dien-7-yl]acetamide], in that order: 0.014 nM and > 20 nM.
As for `Cc1cc(C2CCC(F)(F)CC2)nc2nc([C@H](Cc3cc(F)cc(F)c3)NC(=O)Cn3nc(C4CC4)c4c3C[C@@H]3C[C@H]43)n(-c3ccc(Cl)c4c(NS(C)(=O)=O)nn(CCN5[C@@H]6CC[C@H]5COC6)c34)c(=O)c12` (atropisomer, axis not shown; (P)) [Example 6, N-[(1S)-1-[(3P)-3-(4-chloro-3-methanesulfonamido-1-{2-[(1R,5S)-3-oxa-8-azabicyclo[3.2.1]octan-8-yl]ethyl}-1H-indazol-7-yl)-7-(4,4-difluorocyclohexyl)-5-methyl-4-oxo-3H,4H-pyrido[2,3-d]pyrimidin-2-yl]-2-(3,5-difluorophenyl)ethyl]-2-[(2S,4S)-9-cyclopropyl-7,8-diazatricyclo[4.3.0.0^2,^4]nona-1(6),8-dien-7-yl]acetamide], in data set [1], the EC50 came to 0.006 nM. Moreover, the CC50 at 4 days in data set [2] was > 50 nM.

By EC50 is commonly meant the concentration giving half of the maximal effect. In general, CC50 refers to the concentration giving 50% cytotoxicity.
